Experiments:
[1] = Inhibition of sheep brain tubulin polymerization using DAPI by fluorimetry; parameters: species or system Ovis aries
Ovis aries = organism: Ovis aries; test: Inhibition of sheep brain tubulin polymerization at 100 uM using DAPI by fluorimetry
NCI-H460 = test: Growth inhibition of human NCI-H460 cells after 48 hrs by sulforhodamine B assay; type: functional; conditions: NCI-H460, 48 h
CCRF-CEM = test: Growth inhibition of human CCRF-CEM cells after 48 hrs by sulforhodamine B assay; type: functional
ACHN = test: Growth inhibition of human ACHN cells after 48 hrs by sulforhodamine B assay; type: functional
UACC-62 = test: Growth inhibition of human UACC62 cells after 48 hrs by sulforhodamine B assay; type: functional; conditions: UACC-62, 48 h
COLO 205 = test: Growth inhibition of human COLO205 cells after 48 hrs by sulforhodamine B assay; type: functional; conditions: COLO 205, 48 h
SW-620 = test: Growth inhibition of human SW620 cells after 48 hrs by sulforhodamine B assay; type: functional; conditions: SW-620, 48 h
SK-MEL-2 = test: Growth inhibition of human SK-MEL-2 cells after 48 hrs by sulforhodamine B assay; type: functional; conditions: SK-MEL-2, 48 h
SN12C = test: Growth inhibition of human SN12C cells after 48 hrs by sulforhodamine B assay; type: functional
MDA-MB-435 = test: Growth inhibition of human MDA-MB-435 cells after 48 hrs by sulforhodamine B assay; type: functional; conditions: MDA-MB-435, 48 h
NCI-H522 = test: Growth inhibition of human NCI-H522 cells after 48 hrs by sulforhodamine B assay; type: functional; conditions: NCI-H522, 48 h
SK-MEL-28 = test: Growth inhibition of human SK-MEL-28 cells after 48 hrs by sulforhodamine B assay; type: functional; conditions: SK-MEL-28, 48 h
IGROV-1 = test: Growth inhibition of human IGROV1 cells after 48 hrs by sulforhodamine B assay; type: functional; conditions: IGROV-1, 48 h
786-0 = test: Growth inhibition of human 786-0 cells after 48 hrs by sulforhodamine B assay; type: functional; conditions: 786-0, 48 h
K562 = test: Growth inhibition of human K562 cells after 48 hrs by sulforhodamine B assay; type: functional; conditions: K562, 48 h
RPMI-8226 = test: Growth inhibition of human RPMI8226 cells after 48 hrs by sulforhodamine B assay; type: functional; conditions: RPMI-8226, 48 h
SR = test: Growth inhibition of human SR cells after 48 hrs by sulforhodamine B assay; type: functional
NCI-H23 = test: Growth inhibition of human NCI-H23 cells after 48 hrs by sulforhodamine B assay; type: functional; conditions: NCI-H23, 48 h
LOX IMVI = test: Growth inhibition of human LOXIMVI cells after 48 hrs by sulforhodamine B assay; type: functional
DU-145 = test: Growth inhibition of human DU145 cells after 48 hrs by sulforhodamine B assay; type: functional; conditions: DU-145, 48 h
OVCAR-3 = test: Growth inhibition of human OVCAR3 cells after 48 hrs by sulforhodamine B assay; type: functional; conditions: OVCAR-3, 48 h
SK-MEL-5 = test: Growth inhibition of human SK-MEL-5 cells after 48 hrs by sulforhodamine B assay; type: functional; conditions: SK-MEL-5, 48 h
A549 = test: Growth inhibition of human A549/ATCC cells after 48 hrs by sulforhodamine B assay; type: functional; conditions: A549, 48 h
[2] = Growth inhibition of human Hs 578T cells after 48 hrs by sulforhodamine B assay; type: functional
PC-3 = test: Growth inhibition of human PC3 cells after 48 hrs by sulforhodamine B assay; type: functional; conditions: PC-3, 48 h
MDA-MB-468 = test: Growth inhibition of human MDA-MB-468 cells after 48 hrs by sulforhodamine B assay; type: functional; conditions: MDA-MB-468, 48 h
HCT-15 = test: Growth inhibition of human HCT15 cells after 48 hrs by sulforhodamine B assay; type: functional; conditions: HCT-15, 48 h
M14 = test: Growth inhibition of human M14 cells after 48 hrs by sulforhodamine B assay; type: functional; conditions: M14, 48 h
RXF 393 = test: Growth inhibition of human RXF393 cells after 48 hrs by sulforhodamine B assay; type: functional; conditions: RXF 393, 48 h
TK-10 = test: Growth inhibition of human TK10 cells after 48 hrs by sulforhodamine B assay; type: functional; conditions: TK-10, 48 h
BT-549 = test: Growth inhibition of human BT549 cells after 48 hrs by sulforhodamine B assay; type: functional; conditions: BT-549, 48 h
HOP-92 = test: Growth inhibition of human HOP92 cells after 48 hrs by sulforhodamine B assay; type: functional; conditions: HOP-92, 48 h
HOP-62 = test: Growth inhibition of human HOP62 cells after 48 hrs by sulforhodamine B assay; type: functional; conditions: HOP-62, 48 h
KM12 = test: Growth inhibition of human KM12 cells after 48 hrs by sulforhodamine B assay; type: functional; conditions: KM12, 48 h
[3] = Growth inhibition of human NCI-ADR-RES cells after 48 hrs by sulforhodamine B assay; type: functional
OVCAR-5 = test: Growth inhibition of human OVCAR5 cells after 48 hrs by sulforhodamine B assay; type: functional; conditions: OVCAR-5, 48 h
MDA-MB-231 = test: Growth inhibition of human MDA-MB-231 cells after 48 hrs by sulforhodamine B assay; type: functional; conditions: MDA-MB-231, 48 h
[4] = Growth inhibition of human HCC2998 cells after 48 hrs by sulforhodamine B assay; type: functional; conditions: HCC 2998, 48 h
Malme-3M = test: Growth inhibition of human MALME-3M cells after 48 hrs by sulforhodamine B assay; type: functional
SF-539 = test: Growth inhibition of human SF539 cells after 48 hrs by sulforhodamine B assay; type: functional; conditions: SF-539, 48 h
SNB-75 = test: Growth inhibition of human SNB75 cells after 48 hrs by sulforhodamine B assay; type: functional; conditions: SNB-75, 48 h
SF-268 = test: Growth inhibition of human SF268 cells after 48 hrs by sulforhodamine B assay; type: functional; conditions: SF-268, 48 h
HL-60(TB) = test: Growth inhibition of human HL-60(TB) cells after 48 hrs by sulforhodamine B assay; type: functional; conditions: HL-60, 48 h
HCT-116 = test: Growth inhibition of human HCT116 cells after 48 hrs by sulforhodamine B assay; type: functional; conditions: HCT-116, 48 h
OVCAR-4 = test: Growth inhibition of human OVCAR4 cells after 48 hrs by sulforhodamine B assay; type: functional; conditions: OVCAR-4, 48 h
MCF7 = test: Growth inhibition of human MCF7 cells after 48 hrs by sulforhodamine B assay; type: functional; conditions: MCF7, 48 h
SF-295 = test: Growth inhibition of human SF295 cells after 48 hrs by sulforhodamine B assay; type: functional; conditions: SF-295, 48 h
T47D = test: Growth inhibition of human T47D cells after 48 hrs by sulforhodamine B assay; type: functional
A498 = test: Growth inhibition of human A498 cells after 48 hrs by sulforhodamine B assay; type: functional; conditions: A498, 48 h
MOLT-4 = test: Growth inhibition of human MOLT4 cells after 48 hrs by sulforhodamine B assay; type: functional; conditions: MOLT-4, 48 h
HT-29 = test: Growth inhibition of human HT-29 cells after 48 hrs by sulforhodamine B assay; type: functional; conditions: HT-29, 48 h
OVCAR-8 = test: Growth inhibition of human OVCAR8 cells after 48 hrs by sulforhodamine B assay; type: functional; conditions: OVCAR-8, 48 h
CAKI-1 = test: Growth inhibition of human CAKI-1 cells after 48 hrs by sulforhodamine B assay; type: functional; conditions: CAKI-1, 48 h
SK-OV-3 = test: Growth inhibition of human SKOV3 cells after 48 hrs by sulforhodamine B assay; type: functional; conditions: SK-OV-3, 48 h

Q: What does the source list for `COc1cc([C@@H]2c3cc4c(cc3C[C@H]3COC(=O)[C@@H]32)OCO4)cc(OC)c1OC` [DESOXYPODOPHYLLOTOXIN]?
A: IC50 [1]: 1760 nM; inhibition (Ovis aries): 100%

Q: With `C=C(c1ccc(OC)c(O)c1)c1cc(OC)c(OC)c(OC)c1` as the compound, how does the IC50 [1] read?
A: 1500 nM

Q: Which GI50 (NCI-H460) does the source give for `COc1cc2cc(C(=O)N3c4ccccc4Sc4ccccc43)[nH]c2cc1OC` here?
A: 396 nM

Q: What about the GI50 (CCRF-CEM) of the same compound?
A: 589 nM

Q: What about the GI50 (ACHN) of the same compound?
A: 611 nM

Q: And the GI50 (UACC-62)?
A: 529 nM

Q: What about the GI50 (COLO 205) of the same compound?
A: 595 nM

Q: And the GI50 (SW-620)?
A: 418 nM

Q: What about the GI50 (SK-MEL-2) of the same compound?
A: 873 nM

Q: What about the GI50 (SN12C) of the same compound?
A: 3860 nM

Q: What about the GI50 (MDA-MB-435) of the same compound?
A: 184 nM

Q: What about the GI50 (NCI-H522) of the same compound?
A: 335 nM

Q: What about the GI50 (SK-MEL-28) of the same compound?
A: 829 nM

Q: What about the GI50 (IGROV-1) of the same compound?
A: 1880 nM

Q: And the GI50 (786-0)?
A: 941 nM

Q: And the GI50 (K562)?
A: 437 nM

Q: What about the GI50 (RPMI-8226) of the same compound?
A: 902 nM

Q: And the GI50 (SR)?
A: 303 nM

Q: What about the GI50 (NCI-H23) of the same compound?
A: 7140 nM

Q: And the GI50 (LOX IMVI)?
A: 3310 nM

Q: And the GI50 (DU-145)?
A: 679 nM

Q: What about the GI50 (OVCAR-3) of the same compound?
A: 366 nM

Q: And the GI50 (SK-MEL-5)?
A: 300 nM

Q: What about the GI50 (A549) of the same compound?
A: 656 nM

Q: And the GI50 [2]?
A: 1960 nM

Q: What about the GI50 (PC-3) of the same compound?
A: 435 nM

Q: And the inhibition (Ovis aries)?
A: 36%

Q: What about the GI50 (MDA-MB-468) of the same compound?
A: 204 nM

Q: And the GI50 (HCT-15)?
A: 442 nM

Q: And the GI50 (M14)?
A: 599 nM

Q: And the GI50 (RXF 393)?
A: 363 nM

Q: What about the GI50 (TK-10) of the same compound?
A: 8310 nM

Q: And the GI50 (BT-549)?
A: 6060 nM

Q: And the GI50 (HOP-92)?
A: 54 nM

Q: And the GI50 (HOP-62)?
A: 838 nM

Q: And the GI50 (KM12)?
A: 620 nM

Q: And the GI50 [3]?
A: 571 nM

Q: And the GI50 (OVCAR-5)?
A: 2590 nM

Q: And the GI50 (MDA-MB-231)?
A: 184 nM

Q: What about the GI50 [4] of the same compound?
A: 23400 nM

Q: What about the GI50 (Malme-3M) of the same compound?
A: 503 nM

Q: What about the GI50 (SF-539) of the same compound?
A: 517 nM

Q: And the GI50 (SNB-75)?
A: 392 nM

Q: What about the GI50 (SF-268) of the same compound?
A: 10200 nM

Q: What about the GI50 (HL-60(TB)) of the same compound?
A: 387 nM

Q: And the GI50 (HCT-116)?
A: 537 nM

Q: And the GI50 (OVCAR-4)?
A: 1750 nM

Q: And the GI50 (MCF7)?
A: 368 nM

Q: What about the GI50 (SF-295) of the same compound?
A: 329 nM

Q: And the GI50 (T47D)?
A: 804 nM

Q: What about the GI50 (A498) of the same compound?
A: 215 nM

Q: And the GI50 (MOLT-4)?
A: 1540 nM

Q: And the GI50 (HT-29)?
A: 395 nM

Q: What about the GI50 (OVCAR-8) of the same compound?
A: 1630 nM

Q: What about the GI50 (CAKI-1) of the same compound?
A: 573 nM

Q: What about the GI50 (SK-OV-3) of the same compound?
A: 723 nM

From ChEMBL document CHEMBL2331144, “Synthesis and anticancer activity of analogues of phenstatin, with a phenothiazine A-ring, as a new class of microtubule-targeting agents” (Bioorg Med Chem Lett, 2013)
